Tests used:
CDK9 [1] = molecular target: T1, CDK9 (Homo sapiens, UniProt P50750); assay: CDK9 degradation by HiBit assay, NCIH1048 cells; format: cell-based; conditions: NCIH1048 cells with endogenously tagged N-terminal CDK9-HiBit, 24 hours incubation, read-out: HiBit-NCIH1048.3 DC50
T1 construct: NCIH211 cells with endogenously tagged N-terminal CDK9-HiBit; endogenous in cells; host or cells: NCIH211 cells (endogenous CDK9 locus tagged with HiBit)
Protocol: (§1) Exemplary compounds of the invention were tested for degradation of CDK9. The compounds were tested in 10-dose DC50 duplicate mode with a 3-fold serial dilution starting at 10 μM by HiBit assay (Promega, Inc) as a direct measurement of CDK9 presence, with incubation time of 24 hours using either NCIH211 cells with endogenously tagged N-terminal CDK9-HiBit or NCIH1048 cells with endogenously tagged N-terminal CDK9-HiBit. A control compound (THAL-SNS-032, CAS 2139287-33-3) was tested in 10-dose DC50 mode with 3-fold serial dilution starting at 10 μM. Data was normalized to positive (medium only) and negative (cells with no treatment) controls and curve fits were analyzed with CDK9 as % response vs. log [compound concentration] using a 4-parameter logistic model by GraphPad software. For Table 2: A is <100, B is <1000 C is <10,000, D is >10,000 and ND is Not Determined.

CDK9 [2] = molecular target: T1, CDK9; assay: CDK9 degradation by HiBit assay, NCIH211 cells; format: cell-based; conditions: NCIH211 cells with endogenously tagged N-terminal CDK9-HiBit, 24 hours incubation, read-out: HiBit-NCIH211.2 DC50
Protocol: as §1

[3] = numeric value (control compound)

T1 sequence (P50750 whole entry): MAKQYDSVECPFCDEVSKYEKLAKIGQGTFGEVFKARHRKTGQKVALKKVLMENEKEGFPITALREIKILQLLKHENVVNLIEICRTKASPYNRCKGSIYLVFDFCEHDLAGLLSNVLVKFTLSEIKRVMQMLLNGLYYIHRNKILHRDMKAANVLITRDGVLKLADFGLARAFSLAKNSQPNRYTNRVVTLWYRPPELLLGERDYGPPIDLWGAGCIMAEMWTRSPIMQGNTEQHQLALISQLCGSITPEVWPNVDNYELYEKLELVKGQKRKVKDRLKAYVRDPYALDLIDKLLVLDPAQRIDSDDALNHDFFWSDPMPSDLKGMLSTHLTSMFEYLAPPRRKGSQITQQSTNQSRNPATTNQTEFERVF
T1 sequence (O60563 whole entry partner): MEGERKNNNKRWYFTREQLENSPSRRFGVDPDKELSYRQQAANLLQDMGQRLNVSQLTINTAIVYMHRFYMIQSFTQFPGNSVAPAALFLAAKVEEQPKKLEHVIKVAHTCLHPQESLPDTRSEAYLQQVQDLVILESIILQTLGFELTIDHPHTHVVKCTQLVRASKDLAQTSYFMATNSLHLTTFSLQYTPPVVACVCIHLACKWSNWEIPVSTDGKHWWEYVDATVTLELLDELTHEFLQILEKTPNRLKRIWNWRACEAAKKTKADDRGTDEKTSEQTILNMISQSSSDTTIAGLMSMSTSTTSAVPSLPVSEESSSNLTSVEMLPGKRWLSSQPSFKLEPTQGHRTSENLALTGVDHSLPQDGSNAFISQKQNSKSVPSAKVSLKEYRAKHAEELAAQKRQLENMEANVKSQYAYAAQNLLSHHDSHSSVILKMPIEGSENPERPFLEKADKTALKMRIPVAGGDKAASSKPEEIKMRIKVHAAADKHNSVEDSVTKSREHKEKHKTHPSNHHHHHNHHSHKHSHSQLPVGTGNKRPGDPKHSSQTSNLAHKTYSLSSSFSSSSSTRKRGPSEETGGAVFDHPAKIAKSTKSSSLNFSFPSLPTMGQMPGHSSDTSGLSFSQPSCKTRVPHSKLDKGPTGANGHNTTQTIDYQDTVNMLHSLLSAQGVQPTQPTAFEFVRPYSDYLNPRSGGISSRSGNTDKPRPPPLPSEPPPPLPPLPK

DC50 (CDK9 [1]) [nM]	DC50 (CDK9 [2]) [nM]	DC50 (CDK9 [1]; [3]) [nM]	DC50 (CDK9 [2]; [3]) [nM]	SMILES
< 1000	< 10000	–	–	CCC(CC)c1cc(N[C@H]2CC[C@H](NCC(=O)NCCOCCOCCOCCNc3cccc4c3C(=O)N(C3CCC(=O)NC3=O)C4=O)C2)n2nccc2n1 (stereo partly drawn) [Compound 5.0, N-[2-[2-[2-[2-[[2-(2,6-dioxo-3-piperidyl)-1,3-dioxo-isoindolin-4-yl]amino]ethoxy]ethoxy]ethoxy]ethyl]-2-[[(1S,3S)-3-[[5-(1-ethylpropyl)pyrazolo[1,5-a]pyrimidin-7-yl]amino]cyclopentyl]amino]acetamide]
< 100	< 1000	–	–	CCC(CC)c1cc(N[C@H]2CC[C@H](NCC(=O)NCCOCCOCCOCCNc3cccc4c3C(=O)N(C3CCC(=O)NC3=O)C4=O)C2)n2ncc(Cl)c2n1 (stereo partly drawn) [Compound 6.0, N-[2-[2-[2-[2-[[2-(2,6-dioxo-3-piperidyl)-1,3-dioxo-isoindolin-4-yl]amino]ethoxy]ethoxy]ethoxy]ethyl]-2-[[(1S,3S)-3-[[3-chloro-5-(1-ethylpropyl)pyrazolo[1,5-a]pyrimidin-7-yl]amino]cyclopentyl]amino]acetamide]
< 100	< 100	–	–	C/C=C(\CC)c1cc(N[C@H]2CC[C@H](NCC(=O)N3CCN(CCCNc4cccc5c4C(=O)N(C4CCC(=O)NC4=O)C5=O)CC3)C2)n2nccc2n1 (stereo partly drawn) [Compound 21.0, 2-(2,6-dioxo-3-piperidyl)-4-[3-[4-[2-[[(1S,3S)-3-[[5-[(E)-1-ethylprop-1-enyl]pyrazolo[1,5-a]pyrimidin-7-yl]amino]cyclopentyl]amino]acetyl]piperazin-1-yl]propylamino]isoindoline-1,3-dione]
–	> 10000	–	–	CCC(CC)c1cc(N[C@H]2CC[C@H](NCC(=O)NCCCc3cn(CCOCCOCC(=O)N[C@H](C(=O)N4C[C@H](O)C[C@H]4C(=O)NCc4ccc(-c5scnc5C)cc4)C(C)(C)C)nn3)C2)n2ncc(Cl)c2n1 [Compound 44.0]
< 100	< 100	–	–	CCC(CC)c1cc(N[C@H]2CC[C@H](NCC(=O)N3CCN(CCCCNc4cccc5c4C(=O)N(C4CCC(=O)NC4=O)C5=O)CC3)C2)n2ncc(Cl)c2n1 (stereo partly drawn) [Compound 45.0]
< 100	< 1000	–	–	CCC(CC)c1cc(N[C@H]2CC[C@H](NCC(=O)N3CCN(CCCCNc4cccc5c4C(=O)N(C4CCC(=O)NC4=O)C5=O)CC3)C2)n2nccc2n1 (stereo partly drawn) [Compound 46.0]
< 100	< 1000	–	–	CCC(CC)c1cc(N[C@H]2CC[C@H](NCC(=O)N3CCN(CCNc4cccc5c4C(=O)N(C4CCC(=O)NC4=O)C5=O)CC3)C2)n2nccc2n1 (stereo partly drawn) [Compound 47.0]
< 100	< 1000	–	–	CCC(CC)c1cc(N[C@H]2CC[C@H](NCC(=O)N3CCN(CCCNc4cccc5c4C(=O)N(C4CCC(=O)NC4=O)C5=O)CC3)C2)n2nccc2n1 (stereo partly drawn) [Compound 48.0]
–	< 100	–	–	CCC(CC)c1cc(N[C@H]2CC[C@H](NCC(=O)N3CCN(CCNc4cccc5c4C(=O)N(C4CCC(=O)NC4=O)C5=O)CC3)C2)n2ncc(Cl)c2n1 (stereo partly drawn) [Compound 49.0]
< 100	< 100	–	–	CCC(CC)c1cc(N[C@H]2CC[C@H](NCC(=O)N3CCN(CCCNc4cccc5c4C(=O)N(C4CCC(=O)NC4=O)C5=O)CC3)C2)n2ncc(Cl)c2n1 (stereo partly drawn) [Compound 50.0]
< 10000	< 10000	–	–	CCC(CC)c1cc(N[C@H]2CC[C@H](NCC(=O)NCCCc3cn(CCOCCOCCOc4cc(-c5scnc5C)ccc4CNC(=O)[C@@H]4C[C@@H](O)CN4C(=O)[C@H](C(C)C)N4Cc5ccccc5C4=O)nn3)C2)n2ncc(Cl)c2n1 [Compound 51.0]
< 10000	> 10000	–	–	CCC(CC)c1cc(N[C@H]2CC[C@H](NCC(=O)NCCCc3cn(CCOCCOc4cc(-c5scnc5C)ccc4CNC(=O)[C@@H]4C[C@@H](O)CN4C(=O)[C@H](C(C)C)N4Cc5ccccc5C4=O)nn3)C2)n2ncc(Cl)c2n1 [Compound 52.0]
< 10000	< 10000	–	–	CCC(CC)c1cc(N[C@H]2CC[C@H](NCC(=O)NCCCc3cn(CCOCCOCCOCCOc4cc(-c5scnc5C)ccc4CNC(=O)[C@@H]4C[C@@H](O)CN4C(=O)[C@H](C(C)C)N4Cc5ccccc5C4=O)nn3)C2)n2ncc(Cl)c2n1 [Compound 53.0]
< 10000	< 10000	–	–	CCC(CC)c1cc(N[C@H]2CC[C@H](NCC(=O)NCCCc3cn(CCOCCOCCOCCOCCOc4cc(-c5scnc5C)ccc4CNC(=O)[C@@H]4C[C@@H](O)CN4C(=O)[C@H](C(C)C)N4Cc5ccccc5C4=O)nn3)C2)n2ncc(Cl)c2n1 [Compound 54.0]
< 100	< 100	–	–	C/C=C(\CC)c1cc(N[C@H]2CC[C@H](NCC(=O)N3CCN(CCCCNc4cccc5c4C(=O)N(C4CCC(=O)NC4=O)C5=O)CC3)C2)n2nccc2n1 (stereo partly drawn) [Compound 56.0]
< 100	< 100	–	–	C/C=C(\CC)c1cc(N[C@H]2CC[C@H](NCC(=O)N3CCN(CCCNc4cccc5c4C(=O)N(C4CCC(=O)NC4=O)C5=O)CC3)C2)n2ncc(Cl)c2n1 (stereo partly drawn) [Compound 57.0, 4-[3-[4-[2-[[(1S,3S)-3-[[3-chloro-5-[(E)-1-ethylprop-1-enyl]pyrazolo[1,5-a]pyrimidin-7-yl]amino]cyclopentyl]amino]acetyl]piperazin-1-yl]propylamino]-2-(2,6-dioxo-3-piperidyl)isoindoline-1,3-dione]
< 100	< 100	–	–	C/C=C(\CC)c1cc(N[C@H]2CC[C@H](NCC(=O)N3CCN(CCNc4cccc5c4C(=O)N(C4CCC(=O)NC4=O)C5=O)CC3)C2)n2ncc(Cl)c2n1 (stereo partly drawn) [Compound 58.0, 4-[2-[4-[2-[[(1S,3S)-3-[[3-chloro-5-[(E)-1-ethylprop-1-enyl]pyrazolo[1,5-a]pyrimidin-7-yl]amino]cyclopentyl]amino]acetyl]piperazin-1-yl]ethylamino]-2-(2,6-dioxo-3-piperidyl)isoindoline-1,3-dione]
< 100	< 100	–	–	C/C=C(\CC)c1cc(N[C@H]2CC[C@H](NCC(=O)N3CCN(CCCCNc4cccc5c4C(=O)N(C4CCC(=O)NC4=O)C5=O)CC3)C2)n2ncc(Cl)c2n1 (stereo partly drawn) [Compound 59.0, 4-[4-[4-[2-[[(1S,3S)-3-[[3-chloro-5-[(E)-1-ethylprop-1-enyl]pyrazolo[1,5-a]pyrimidin-7-yl]amino]cyclopentyl]amino]acetyl]piperazin-1-yl]butylamino]-2-(2,6-dioxo-3-piperidyl)isoindoline-1,3-dione]
–	–	11	53	CC(C)(C)c1cnc(CSc2cnc(NC(=O)C3CCN(CC(=O)NCCOCCOCCOCCNc4cccc5c4C(=O)N(C4CCC(=O)NC4=O)C5=O)CC3)s2)o1 (stereo not drawn) [THAL-SNS-032, reference compound]

— patent US20250188084A1, “COMPOUNDS AND METHODS FOR MODULATING CDK9 ACTIVITY” (KRONOS BIO, INC., priority 2020, published 2025)
